Test results from US11752159B2, “Compositions and methods for suppressing or reducing systemic immune response in a subject” (THE TRUSTEES OF THE UNIVERSITY OF PENNSYLVANIA, priority 2015, dated 2023).

Columns and labels:
[1] = test system: regulatory T cells (Tregs); assay: Kinetics of systemic Treg levels after topical MC903 treatment; type: in vivo, mice; conditions: Day 15, after cessation of topical treatment
Description: FIG. 3A-3C comprise graphs illustrating data derived from topical treatment of B6 mice with EtOH or MC903 (2 nmol) until […]. Mice were taken at different time points post treatment initiation as indicated. FIG. 3A is a graph illustrating the percentage of Tregs out of CD4+ T cells in the spleen and blood of B6 mice over 18 days. FIG. 3B illustrates the absolute numbers of Tregs in the spleen of B6 mice over 18 days. FIG. 3C illustrates the serum thymic stromal lymphopoietin (TSLP) level change over time in B6 mice over 18 days.
(§1) Next, the kinetics of the systemic increase in Treg levels was investigated after topical MC903 treatment (treatment stopped on Day 7). The absolute number and the fraction of Tregs increased to a peak between days 6 and 9 and gradually declined thereafter in the spleen and the blood of MC903-treated mice (FIGS. 3A-3B). Circulating TSLP levels peaked at Day 6 and fell abruptly by Day 9 (FIG. 3C).

ApoE KO mice = assay: ApoE KO mouse model of atherosclerosis, topical MC903; type: in vivo; conditions: high fat Western diet, topical 3 times/week every other week for 10 weeks
Description: FIGS. 6A-6B comprise graphs illustrating data derived from topical treatment of ApoE KO mice fed a high-fat Western diet with EtOH or MC903 (2 nmol) 3 times/week every other week for 10 weeks. FIG. 6A illustrates the total cholesterol levels at baseline, at week 3, and week 10 of ApoE KO mice. FIG. 6B illustrates the atherosclerotic plaques difference among ApoE KO mice. The full length of the aorta was removed from the mice at week 10 and stained with Oil Red O dye to detect atherosclerotic plaques. The area occupied by the plaque was calculated and divided by the total area of the aorta (% lesion area). N=7 mice/group. * indicates significance of p<0.01 by T-test.
The effects of topical application of MC903 on atherosclerotic plaques were investigated. Atherosclerosis is a disease condition where lipid deposition occurs in arterial walls, leading to obstruction of blood flow. Ultimately, these lesions cause morbidity and mortality by affecting blood flow to the heart (myocardial infarction; angina) or the brain (stroke). Although these lesions are formed by cholesterol deposits in patients who have hypercholesterolemia, immune activation is necessary for plaque progression, and Tregs are implicated in dampening the progression of atherosclerosis. It is contemplated that topical MC903 treatment can attenuate plaque progression in atherosclerosis. […]

B6 mice = assay: Experimental allergic encephalitis (EAE) mouse model of multiple sclerosis, topical MC903; type: in vivo; conditions: topical daily starting 1 day before disease induction, compared to EtOH-treated mice
Description: FIG. 7 illustrates the clinical score difference among B6 mice topically treated with EtOH or MC903 daily for 2 weeks. The B6 mice were injected with myelin oligodendrocyte glycoprotein (MOG) peptide emulsified in complete Freund's adjuvant (CFA), then received Pertussis toxin intraperitoneally at the time of immunization and 48 h later. The mice were treated with topical EtOH or MC903 daily for 2 weeks. Mice were clinically scored on a five-point scale for signs of disease on the indicated days. N=8 mice/group. P=0.06 by two-way Analysis of variance (ANOVA). To test whether topical MC903 treatment was effective at treating multiple sclerosis (MS), the effect of MC903 in reducing clinical severity of a mouse model of MS known as experimental allergic encephalitis (EAE). Mice were topically treated daily with MC903 starting 1 day before disease induction. […] Thus, topical MC903 treatment might also be beneficial in the treatment of multiple sclerosis.

[2] = test system: Tregs and conventional CD4+ T cells (Tconvs); assay: BrdU incorporation in splenic Tregs and conventional T cells; type: in vivo, mice; conditions: spleen, Day 8, topical 2 nmol daily
Description: FIGS. 4A-4B comprise graphs illustrating data derived from topical treatment of B6 mice with EtOH or MC903 (2 nmol) daily and BrdU (intraperitoneal injection as a loading dose, followed by administration of drinking water) for the last 3 days. FIG. 4A illustrates Bromodeoxyuridine (BrdU) incorporation in Tregs on Day 8 in the spleen of B6 mice. FIG. 4B illustrates BrdU incorporation in conventional T cells (Tconvs) on Day 8 in the spleen of B6 mice.
as §1

[3] = test system: regulatory T cells (Tregs); assay: Topical MC903 on ear skin of wildtype mice, fraction of Tregs in skin, blood and lymphoid organs; type: in vivo; conditions: 2 nmol
Description: FIGS. 1A-1B comprise graphs relating to topical treatment of B6 mice with EtOH or MC903 (2 nmol) on one ear. FIG. 1A, comprising FACS data and a graph, illustrates the percentage of regulatory T cells (Tregs) in the ear skin homogenate of B6 mice. “Treated” refers to topical administration of MC903 to the ear skin of the B6 mice. “Untreated” refers to topical administration of EtOH to the ear skin of the B6 mice. FIG. 1B comprises graphs illustrating the percentage of Tregs out of CD4+ T cells in the blood, spleen, and peripheral lymph nodes of B6 mice topically treated with MC903. FIG. 2 is a graph illustrating the percentage of Tregs out of CD4+ T cells in the spleen after B6 mice were treated topically or injected intraperitoneally with EtOH or MC903 (2 nmol). Wildtype (WT) mice were treated with vehicle (100% EtOH) or MC903 once a day on the skin of one ear for 7 days. On Day 8, the ear skin of both ears, blood, and secondary lymphoid organs (lymph nodes and spleen) were harvested.

Tregs = assay: Treg % in blood and spleen after topical vitamin D3 analogs; type: in vivo, mice; conditions: topical MC903, summary statement of Example 6
Description: FIGS. 10A-10B comprise bar graphs illustrating data derived from topically treating mice with EtOH or EB1089 (0.04 nmol/ear) for 5 days and bleeding them on Day 7. Treg % from (FIG. 10A) blood and (FIG. 10B) spleen are illustrated. N=3 mice/group. *p<0.01 by Student t-test.
VDR stimulation of keratinocytes led to TSLP production, which in certain embodiments caused increase in Treg numbers. The effects of two vitamin D3 analogs (22-Oxacalcitriol, also known as 22-OXA, and EB1089) on TSLP production and Treg numbers were evaluated. Similarly to MC903, 22-OXA and EB1089 were applied to the ear skin bilaterally at a dose of 2 nmol/ear dissolved in ethanol. After 5 days of treatment, the mice were bled and serum TSLP levels were measured. […] To avoid the toxic effect, the dose of 22-OXA and EB1089 was lowered to a point where morbidity and mortality of mice was not observed (0.4 nmol/ear for 22-OXA; 0.04 nmol/ear for EB1089). At this dose, no increase in TSLP level was detected in 22-OXA-treated mice (FIG. 9B).

For C=C1/C(=C\C=C2/CCC[C@]3(C)[C@@H]([C@H](C)/C=C/[C@@H](O)C4CC4)CC[C@@H]23)C[C@@H](O)C[C@@H]1O [MC903, 26,27-cyclo-22-ene-1α,24S-dihydroxyvitamin D3], the “Treg levels versus EtOH-treated group by Day 15” value [1] was “no differences”, the “decrease of % of area occupied by the plaques in the aorta” value (ApoE KO mice) was greater than 50% and the total cholesterol levels (ApoE KO mice) was “did not alter”. For the same molecule, the “clinical severity of EAE” value (B6 mice) was “attenuated clinical severity”, the “BrdU incorporation by Tregs” value [2] was “enhanced” and the “BrdU incorporation by conventional CD4+ T cells (Tconvs)” value [2] was “no significant increase”. The “effect on Tregs (spleen) when injected intraperitoneally” value ([3]; intraperitoneal injection) was “No effect”, the “increase in the fraction of Tregs (% Foxp3+ of CD4+ T cells) in treated ear skin” value ([3]; topical once a day on one ear for 7 days, Day 8, compared to EtOH-treated side) was “about 2 fold” and the “systemic Treg numbers” value (Tregs) was “increase systemic Treg numbers”.
